Test [1] addresses human CB2 cannabinoid receptor (Homo sapiens (Human), UniProt P34972). Put plainly: Radioligand binding assay, CB2 ([3H]-CP 55,940 competition). The conditions noted are these: for CB2 Selectivity: CB2 versus CB1 binding (ratio of CB1 IC50 to CB2 IC50); for IC50: plasma membranes of HEK 293 EBNA cells transfected with human CB2, 0.72 nM [3H]-CP 55,940, NA = not active. How it is done:
(§1) A. Radioligand Binding Assay
(§2) Plasma membranes prepared from HEK 293 EBNA cells transfected with human CB1 or CB2 cannabinoid receptors ([…] protein, receptor concentration; PerkinElmer) were used for the radioligand binding studies. The composition of incubation buffer for CB1 assay was 50 mM Tris base, 2.5 mM EDTA, 5 mM MgCl2 and 0.5 mg/ml fatty acid free BSA and for CB2 assay was 50 mM Tris base, 2.5 mM EGTA, 5 mM MgCl2 and 1 mg/ml fatty acid free BSA; pH was adjusted to 7.4 by adding 1N HCl. Plasma membranes were diluted with incubation buffer to provide a final protein concentration of 2.4 μg (CB1) or 8 μg (CB2) per well in non-binding surface polystyrene 96-well assay plates (Corning). Compound solutions were prepared in silanized glass tubes and dispensed using pipette tips with SUPERSLIK™ surface. Competition studies were performed using a final concentration of 0.72 nM [^3H]-CP 55,940 (100-180 Ci/mmol, specific activity; PerkinElmer) against test compounds. Non-specific binding was determined using 10 uM of unlabeled CP 55,940. Incubations were performed in 96-well assay plates at a final volume of 200 ul for 90 min (CB1) or 60 min (CB2) at room temperature. Binding reactions were terminated by the addition of ice-cold incubation buffer and rapid filtration through a glass fiber filter using a cell harvester (Inotech). This was followed by 8 additional washes. The glass fiber filter (0.26 mm thickness, 1-1.5 um retention; Inotech) was presoaked in cold incubation buffer containing 0.05% polyethylenimine. The filters were oven-dried at 50° C. for 60 min and counting performed using a Beckman Coulter LS 6500 Multi-Purpose Scintillation Counter (Beckman-Coulter). Binding was determined in duplicate for at least 4 separate experiments.

In test [2] the target is human CB1 cannabinoid receptor (Homo sapiens (Human), UniProt P21554). The test can be described thus: Radioligand binding assay, CB1 ([3H]-CP 55,940 competition). To be noted: plasma membranes of HEK 293 EBNA cells transfected with human CB1; 0.72 nM [3H]-CP 55,940; NA = not active. How it is done:
as §1, §2

The test system of test [3] is mouse isolated vas deferens. Put plainly: Mouse isolated vas deferens (MVD) bioassay, electrically stimulated contractions. Format: cell-based. To be noted: for EC50: Mus musculus.
The mark [4] stands for this setting: vas deferens of male Swiss Webster mice, electrically evoked contractions, NA = not active, read-out: MVD Assay EC50.
[5] abbreviates: vas deferens of male Swiss Webster mice, electrically evoked contractions, NA = not active.

Where two headings read alike, the source gives them in different places.

Sequence of human CB1 cannabinoid receptor (P21554 whole entry): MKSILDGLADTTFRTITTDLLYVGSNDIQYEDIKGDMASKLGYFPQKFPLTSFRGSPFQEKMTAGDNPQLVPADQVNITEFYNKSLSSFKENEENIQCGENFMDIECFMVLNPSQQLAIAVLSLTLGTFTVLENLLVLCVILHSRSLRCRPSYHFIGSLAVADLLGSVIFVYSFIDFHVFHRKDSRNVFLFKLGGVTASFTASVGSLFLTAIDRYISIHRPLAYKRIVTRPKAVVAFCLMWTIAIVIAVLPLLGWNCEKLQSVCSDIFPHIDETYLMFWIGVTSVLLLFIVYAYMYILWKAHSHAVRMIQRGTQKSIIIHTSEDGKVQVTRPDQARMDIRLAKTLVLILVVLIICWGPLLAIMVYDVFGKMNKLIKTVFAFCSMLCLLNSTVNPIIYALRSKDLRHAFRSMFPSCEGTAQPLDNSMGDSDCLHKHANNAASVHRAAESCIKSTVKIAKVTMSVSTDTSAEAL
Sequence of human CB2 cannabinoid receptor (P34972 whole entry): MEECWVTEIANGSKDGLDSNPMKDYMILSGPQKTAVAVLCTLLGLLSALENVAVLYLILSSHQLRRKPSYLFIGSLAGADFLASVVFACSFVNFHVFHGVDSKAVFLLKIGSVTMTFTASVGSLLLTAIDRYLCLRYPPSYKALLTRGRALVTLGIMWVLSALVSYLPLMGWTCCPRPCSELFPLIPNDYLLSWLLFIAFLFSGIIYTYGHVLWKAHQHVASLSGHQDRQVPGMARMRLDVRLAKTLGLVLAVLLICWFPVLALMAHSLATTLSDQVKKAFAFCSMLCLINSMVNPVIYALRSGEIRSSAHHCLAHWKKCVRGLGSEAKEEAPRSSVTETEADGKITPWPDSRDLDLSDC

The IC50 is the midpoint of a concentration-inhibition curve. The low end stands for greater potency in that assay, the high end for weaker potency in that assay. The term EC50 denotes the concentration needed to bring the measured effect to its halfway point. Regarding `CN(C)CCN(C)c1cnn(C2CC(C)(C)CC(C)(C)C2)c(=O)c1Cl` [Compound 31, 4-Chloro-5-(2-dimethylaminoethylmethylamino)-2-(3,3,5,5-tetramethyl-cyclohexyl)pyridazin-3-one], in test [1], the “CB2 Selectivity” value is 132 and the IC50 stood at 20 nM. For the same compound, in test [2], the IC50 came out at 2630 nM. In test [3] (setting [4]), the EC50 was 330 nM.
Regarding `CC1(C)CC(n2ncc(NCCN3CCOCC3)c(Br)c2=O)CC(C)(C)C1` [Compound 15, 4-Bromo-5-(2-morpholin-4-ylethylamino)-2-(3,3,5,5-tetramethyl-cyclohexyl)pyridazin-3-one], in test [1], the “CB2 Selectivity” value is given as 83 and the IC50 was 22.4 nM. In test [2], the IC50 came out at 1860 nM. For the same compound, the EC50 in test [3] (setting [4]) came to 86 nM.
The like results for `CN(C)c1cnn(C2CC(C)(C)CC(C)(C)C2)c(=O)c1` [Compound 7, 5-Dimethylamino-2-(3,3,5,5-tetramethylcyclohexyl)pyridazin-3-one] were, in that order, greater than 26, 380 nM, greater than 10000 nM and 2500 nM.
With `CN(C)c1cnn(-c2cc(C(F)(F)F)cc(C(F)(F)F)c2)c(=O)c1Cl` [Compound 21, 2-(3,5-Bistrifluoromethylphenyl)-4-chloro-5-dimethylaminopyridazin-3-one], the IC50 in test [1] was greater than 10000 nM. Further, the EC50 in test [3] (setting [4]) was greater than 10000 nM.
For `CCCNc1cnn(-c2cc(Cl)cc(Cl)c2)c(=O)c1Cl` [Compound 25, 4-Chloro-2-(3,5-dichlorophenyl)-5-propylaminopyridazin-3-one], the IC50 in test [1] and in test [2] was greater than 10000 nM throughout. Further, the EC50 in test [3] (setting [4]) was greater than 10000 nM.
Turning to `CN(C)CCNc1cnn(-c2cc(C(F)(F)F)cc(C(F)(F)F)c2)c(=O)c1Cl` [Compound 23, 2-(3,5-Bistrifluoromethylphenyl)-4-chloro-5-(2-dimethylaminoethylamino)pyridazin-3-one], the “MVD assay qualitative outcome” value in test [3] (setting [5]) is on record as “Increase”.
As to `CN(C)CCn1ncc2c(=O)n(C3CC(C)(C)CC(C)(C)C3)ncc21` [Compound 38, 1-(2-Dimethylaminoethyl)-5-(3,3,5,5-tetramethylcyclohexyl)pyrazolo[3,4-d]pyridazin-4-one], in test [1], the “CB2 Selectivity” value is recorded as 38. Also, the IC50 in test [1] worked out at 105 nM; in test [2] it was 3980 nM. Further, the EC50 in test [3] (setting [4]) stood at 130 nM.
For `CCCNc1cnn(C2CC(C)(C)CC(C)(C)C2)c(=O)c1Br` [Compound 13, 4-Bromo-5-propylamino--2-(3,3,5,5-tetramethylcyclohexyl)pyridazin-3-one], in that order: 36, 4.8 nM, 174 nM and 21 nM.
For the compound `Cc1ccc(C)c(-n2ncc(NCCN3CCOCC3)c(Cl)c2=O)c1` [Compound 29, 4-Chloro-2-(2,5-dimethylphenyl)-5-(2-morpholin-4-ylethylamino)-pyridazin-3-one], the IC50 in test [1] is greater than 10000 nM. Besides, the EC50 in test [3] (setting [4]) was greater than 10000 nM.
With `CCCNc1cnn(CC(C)(C)C)c(=O)c1Cl` [Compound 33, 4-Chloro-2-(2,2-dimethylpropyl)-5-propylaminopyridazin-3-one], the EC50 in test [3] (setting [4]) was greater than 10000 nM.
Take `CC1(C)CC(n2ncc3nn(CCN4CCOCC4)cc3c2=O)CC(C)(C)C1` [Compound 37, 2-(2-Morpholin-4-ylethyl)-5-(3,3,5,5-tetramethylcyclohexyl)pyrazolo[3,4-d]pyridazin-4-one]: the “CB2 Selectivity” value in test [1] is on record as greater than 7. Further, the IC50 was 1510 nM in test [1] and greater than 10000 nM in test [2]. For the same compound, the EC50 in test [3] (read-out: MVD Assay EC50 (nM)) was 1400 nM.
For `CNc1cnn(C2CC(C)(C)CC(C)(C)C2)c(=O)c1Cl` [Compound 3, 4-Chloro-5-methylamino-2-(3,3,5,5-tetramethylcyclohexyl)pyridazin-3-one], in test [1], the “CB2 Selectivity” value was greater than 28 and the IC50 amounted to 355 nM. Moreover, the IC50 in test [2] was greater than 10000 nM. For the same compound, in test [3] (setting [4]), the EC50 came to 2900 nM.
Compound `CCCNc1cnn(Cc2ccccc2)c(=O)c1Cl` [Compound 30, 2-Benzyl-4-chloro-5-propylaminopyridazin-3-one] gave an IC50 in test [1] greater than 10000 nM. Moreover, the EC50 in test [3] (setting [4]) is greater than 10000 nM.
In the case of `CN(C)CCNc1cnn(C2CC(C)(C)CC(C)(C)C2)c(=O)c1Br` [Compound 14, 4-Bromo-5-(2-dimethylaminoethylamino)-2-(3,3,5,5-tetramethyl-cyclohexyl)pyridazin-3-one], the “CB2 Selectivity” value in test [1] was 177. Moreover, the results for the IC50 in test [1] and in test [2] were 42 nM and 7410 nM, respectively. The EC50 in test [3] (setting [4]) came to 820 nM.
The like results for `CC1(C)CC(n2ncc(Cl)c(Cl)c2=O)CC(C)(C)C1` [Compound 2, 4,5-Dichloro-2-(3,3,5,5-tetramethyl-cyclohexyl)pyridazin-3-one] were, in that order, greater than 26, 389 nM, greater than 10000 nM and greater than 10000 nM.
Turning to `CCCNc1cnn(-c2cc(C)ccc2C)c(=O)c1Cl` [Compound 26, 4-Chloro-2-(2,5-dimethylphenyl)-5-propylaminopyridazin-3-one], the IC50 in test [1] worked out at 10000 nM. For the same compound, the EC50 in test [3] (setting [4]) is greater than 10000 nM.
The compound `CC1(C)CC(n2ncc(O)cc2=O)CC(C)(C)C1` [Compound 1, 5-hydroxy-2-(3,3,5,5-tetramethyl-cyclohexyl)pyridazin-3-one] registered an IC50 in test [1] of 1820 nM. In addition, in test [3] (setting [4]), the EC50 came to 3700 nM.
As for `CC1(C)CC(n2ncc3c(cnn3CCN3CCOCC3)c2=O)CC(C)(C)C1` [Compound 36, 1-(2-Morpholin-4-ylethyl)-5-(3,3,5,5-tetramethylcyclohexyl)pyrazolo[3,4-d]pyridazin-4-one], in test [1], the “CB2 Selectivity” value was 26 and the IC50 stood at 8.5 nM. In addition, the IC50 in test [2] came out at 219 nM. For the same compound, in test [3] (setting [4]), the EC50 amounted to 33 nM.
In turn, `CN(C)CCn1cc2c(=O)n(C3CC(C)(C)CC(C)(C)C3)ncc2n1` [Compound 39, 2-(2-Dimethylaminoethyl)-5-(3,3,5,5-tetramethylcyclohexyl)pyrazolo[3,4-d]pyridazin-4-one] had an IC50 in test [1] of 2040 nM. Also, in test [3] (setting [4]), the EC50 worked out at 2900 nM.
For the compound `CN(C)c1cnn(C2CC(C)(C)CC(C)(C)C2)c(=O)c1Cl` [Compound 4, 4-Chloro-5-dimethylamino-2-(3,3,5,5-tetramethylcyclohexyl) pyridazin-3-one], in test [1], the “CB2 Selectivity” value stood at 60 and the IC50 stood at 17 nM. Besides, in test [2], the IC50 was 1020 nM. Further, the EC50 in test [3] (setting [4]) came out at 82 nM.
In the case of `Cc1cc(C)cc(-n2ncc(N(C)C)c(Cl)c2=O)c1` [Compound 17, 4-Chloro-5-dimethylamino-2-(3,5-dimethylphenyl)-pyridazin-3-one], the IC50 in test [1] is greater than 10000 nM.
In turn, `CCCNc1cnn(C(C)(C)C)c(=O)c1Cl` [Compound 24, 2-t-Butyl-4-chloro-5-propylamino-pyridazin-3-one] gave an IC50 in test [1] greater than 10000 nM. The EC50 in test [3] (setting [4]) was greater than 10000 nM.
For `O=c1c(Cl)c(NCCN2CCOCC2)cnn1-c1cc(C(F)(F)F)cc(C(F)(F)F)c1` [Compound 22, 2-(3,5-Bistrifluoromethylphenyl)-4-chloro-5-(2-morpholin-4-ylethyl-amino)pyridazin-3-one], in test [1], the IC50 is greater than 10000 nM. Further, the EC50 in test [3] (setting [4]) was greater than 10000 nM.
In test [1], `CCCNc1cnn(C2CCCCC2)c(=O)c1Cl` [Compound 10, 4-Chloro-2-cyclohexyl-5-propylaminopyridazin-3-one] yielded a half-inhibitory concentration (IC50) of 10000 nM. For the same compound, the EC50 in test [3] (setting [4]) is greater than 10000 nM.
For `O=c1c(Cl)c(NCCN2CCOCC2)cnn1-c1cc(Cl)cc(Cl)c1` [Compound 28, 4-Chloro-2-(3,5-dichlorophenyl)-5-(2-morpholin-4-ylethylamino)-pyridazin-3-one], the IC50 in test [1] is greater than 10000 nM. The “MVD assay qualitative outcome” value in test [3] (setting [5]) is “Increase”.
The compound `CCCNc1cnn(-c2ccccc2)c(=O)c1Cl` [Compound 9, 4-Chloro-2-phenyl-5-propylamino-pyridazin-3-one] gave an IC50 in test [1] greater than 10000 nM. In addition, in test [3] (setting [4]), the EC50 is greater than 10000 nM.
As for `CC(C)(C)n1ncc(NCCN2CCOCC2)c(Cl)c1=O` [Compound 27, 2-t-Butyl-4-chloro-5-(2-morpholin-4-ylethylamino)-pyridazin-3-one], in test [1], the IC50 was greater than 10000 nM. For the same compound, the concentration giving a half-maximal response (EC50) in test [3] (setting [4]) is greater than 10000 nM.
In test [1], `CCN(CC)CCNc1cnn(C2CC(C)(C)CC(C)(C)C2)c(=O)c1Cl` [Compound 32, 4-Chloro-5-(2-diethylaminoethylamino)-2-(3,3,5,5-tetramethyl-cyclohexyl)pyridazin-3-one] showed an IC50 of 1290 nM. For the same compound, the EC50 in test [3] (setting [4]) is 10000 nM.

The record behind these values is US9062004B2, “Cannabinoid-2 agonists” (Allergan, Inc., priority 2010, dated 2015).
